*1 amine or outer side, *2 acyl side, *3 side chain or, on linkers, in order; H or OH if unused. Where a SMILES comes first, the peptide text is derived from it. Bridges are numbered along the chain shown (N, C = ends). Side-chain parts run from the residue outwards. [ ]: non-standard residue; d: D form. The star is where a group is joined. ξ: configuration not given here. X29 = C[C@H](CCCCNC(=O)COCCOCCNC(=O)COCCOCCNC(=O)CC[C@H](NC(=O)CCCCCCCCCCCCCCCCC(=O)O)C(=O)O)C(=O)C[C@H](C(=O)[*:1])C(C)(C)S[*:2]; X18 = O=C(O)CCCCCCCCCCCCCCCCC(=O)N[C@@H](CCC(=O)NCCOCCOCCOCCOCCOCOCCOCCOCCOCCOCCOCCOCCC(=O)*)C(=O)O; X15 = C[N+](C)(C)CCOCCOCCC(=O)C[C@H](CCCCN[*:1])C(=O)[*:2]; PEG12 = NCCOCCOCCOCCOCCOCCOCCOCCOCCOCCOCCOCCOCCC(=O)O; CH2CH2OCH2CH2OCH2CH2NMe3+ = C[N+](C)(C)CCOCCOCC*; NH(CH2CH2O)2CH2CH2NMe3+ = C[N+](C)(C)CCOCCOCCN*; Trp(7-Me) = Cc1cccc2c(C[C@H](N)C(=O)O)c[nH]c12; C18 diacid = O=C(O)CCCCCCCCCCCCCCCCC(=O)*; γGlu = O=C(O)[C@H](CCC(=O)[*:2])N[*:1]; 2Nal = N[C@@H](Cc1ccc2ccccc2c1)C(=O)O; AEF = NCCOc1ccc(C[C@H](N)C(=O)O)cc1; ξγGlu = O=C(O)C(CCC(=O)[*:2])N[*:1]; X2 = C[N+](C)(C)C[C@@H](CC(=O)O)N*; 3Pal = N[C@@H](Cc1cccnc1)C(=O)O; Lys(Me) = CNCCCC[C@H](N)C(=O)O; NMeK = CN[C@@H](CCCCN)C(=O)O; Pen = CC(C)(S)[C@H](N)C(=O)O; Suc = O=C(CCC(=O)[*:2])[*:1]; Thp = NC1(C(=O)O)CCOCC1; X1 = C[N+](C)(C)CCCCC*; AEEA = NCCOCCOCC(=O)O; Sar = CNCC(=O)O
Experiments:
[1] = target: T1, IL-23R (Homo sapiens, UniProt Q5VWK5); test: IL23R Reporter Assay; assay type: cell-based; settings: HEK293 cells containing IL-23R, IL-12Rβ1 and STAT-inducible firefly luciferase reporter; 10 ng/mL IL-23 (EC90); 5 h
T1 construct: HEK293 cells containing IL-23R, IL-12Rβ1 and a firefly luciferase reporter gene driven by a STAT-inducible promoter (Promega); host or cells: HEK293
T1 sequence (Q5VWK5 24-629): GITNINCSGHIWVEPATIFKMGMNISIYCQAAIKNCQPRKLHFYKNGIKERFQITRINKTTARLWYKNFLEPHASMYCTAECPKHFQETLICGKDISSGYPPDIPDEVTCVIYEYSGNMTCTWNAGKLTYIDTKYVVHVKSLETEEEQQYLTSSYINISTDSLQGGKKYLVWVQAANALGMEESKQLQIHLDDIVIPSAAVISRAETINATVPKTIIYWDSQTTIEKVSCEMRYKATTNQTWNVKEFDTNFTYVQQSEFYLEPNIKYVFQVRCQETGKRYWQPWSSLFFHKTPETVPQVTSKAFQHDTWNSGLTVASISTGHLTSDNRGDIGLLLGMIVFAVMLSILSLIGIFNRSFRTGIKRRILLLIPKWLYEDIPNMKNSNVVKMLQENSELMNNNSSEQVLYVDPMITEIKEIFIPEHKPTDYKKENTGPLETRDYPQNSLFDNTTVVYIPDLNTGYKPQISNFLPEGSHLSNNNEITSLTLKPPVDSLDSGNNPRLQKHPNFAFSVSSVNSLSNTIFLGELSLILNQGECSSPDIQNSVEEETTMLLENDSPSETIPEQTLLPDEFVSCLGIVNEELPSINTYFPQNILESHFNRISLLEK
How it was run: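 HEK293 cells carrying IL-23R, IL-12Rβ1 and a STAT-driven firefly luciferase reporter (4000 cells/well) received compound, then 10 ng/mL IL-23 solution (EC90), and were incubated for 5 h at 37° C. BioGlo luminescence was normalised to IL-23 alone (0%) and 30 μM control inhibitor (100%). IC50 came from a 4-parameter Hill fit.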

[2] = test system: IL-23-stimulated phosphorylated STAT3 in peripheral blood mononuclear cells (PBMCs); test: PBMC pSTAT3 Assay; assay type: cell-based; settings: PBMCs from healthy donors; 30 min preincubation with peptide; IL-23 5 ng/mL for 30 min; phospho-STAT3 by MSD
How it was run: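 Healthy-donor PBMCs expanded 4 days on anti-CD3 with 100 ng/mL IL-1β, starved ~4 h in RPMI-0.1% BSA, preincubated 30 min with peptide, then stimulated 30 min at 37 °C with 5 ng/mL IL-23. Lysate pSTAT3 measured by MSD phospho-STAT panel; IC50 derived.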

Row | SMILES | IC50 [1] | IC50 [2]
1 | CC(=O)NCCCC[C@@H]1NC(=O)[C@H](Cc2c[nH]c3c(C)cccc23)NC(=O)[C@H]([C@@H](C)O)NC(=O)[C@H](CCCCNC(=O)CCC(=O)N[C@H](CC(=O)O)C[N+](C)(C)C)NC(=O)[C@@H](NC(=O)[C@@H](CCCNC(=N)N)NC(C)=O)C(C)(C)SSC(C)(C)[C@@H](C(=O)N[C@@H](Cc2ccc(OCCN)cc2)C(=O)N[C@@H](Cc2ccc3ccccc3c2)C(=O)NC2(C(=O)N[C@@H](CCC(=O)O)C(=O)N[C@@H](CC(N)=O)C(=O)N[C@@H](Cc3cccnc3)C(=O)N(C)CC(=O)N[C@@H](CCCCNC(=O)COCCOCCNC(=O)COCCOCCNC(=O)CC[C@H](NC(=O)CCCCCCCCCCCCCCCCC(=O)O)C(=O)O)C(N)=O)CCOCC2)NC1=O [compound 53, MeCO-r-Pen(3)-K(d)-T-7MeW-K(Ac)-Pen(3)-AEF-2Nal-THP-E-N-3Pya-Sar-K(PEG2PEG2gEC18OH)-CONH2] (Ac-[dR][Pen]K([Suc-X2])T[Trp(7-Me)]K(Ac)[Pen][AEF][2Nal][Thp]EN[3Pal][Sar]K([AEEA-AEEA-γGlu-C18 diacid])-NH2; disulfide 2-7) | 50 to 500 nM | < 0.5 nM
2 | CC(=O)NCCCC[C@@H]1NC(=O)[C@H](Cc2c[nH]c3c(C)cccc23)NC(=O)[C@H]([C@@H](C)O)NC(=O)[C@H](CC(N)=O)NC(=O)[C@@H](NC(=O)[C@@H](CCCCNC(=O)COCCOCCNC(=O)COCCOCCNC(=O)CCC(NC(=O)CCCCCCCCCCCCCCCCC(=O)O)C(=O)O)NC(C)=O)C(C)(C)SSC(C)(C)[C@@H](C(=O)N[C@@H](Cc2ccc(OCCN)cc2)C(=O)N[C@@H](Cc2ccc3ccccc3c2)C(=O)NC2(C(=O)N[C@@H](CCC(=O)O)C(=O)N[C@@H](CC(N)=O)C(=O)N[C@@H](Cc3cccnc3)C(=O)N(C)[C@@H](CCCCNC(=O)CCC(=O)N[C@H](CC(=O)O)C[N+](C)(C)C)C(N)=O)CCOCC2)NC1=O (stereo partly shown) [compound 42, MeCO-k(PEG2PEG2gEC18OH)-Pen(3)-N-T-7MeW-K(Ac)-Pen(3)-AEF-2Nal-THP-E-N-3Pya-NMeK(d)-CONH2] (Ac-[dK]([AEEA-AEEA-ξγGlu-C18 diacid])[Pen]NT[Trp(7-Me)]K(Ac)[Pen][AEF][2Nal][Thp]EN[3Pal][NMeK]([Suc-X2])-NH2; disulfide 2-7) | < 50 nM | < 0.5 nM
3 | CC(=O)NCCCC[C@@H]1NC(=O)[C@H](Cc2c[nH]c3c(C)cccc23)NC(=O)[C@H]([C@@H](C)O)NC(=O)[C@H](CC(N)=O)NC(=O)[C@@H](NC(C)=O)C(C)(C)SSC(C)(C)[C@@H](C(=O)N[C@@H](Cc2ccc(OCCN)cc2)C(=O)N[C@@H](Cc2ccc3ccccc3c2)C(=O)NC2(C(=O)N[C@@H](CCC(=O)O)C(=O)N[C@@H](CC(N)=O)C(=O)N[C@@H](Cc3cccnc3)C(=O)N(C)CC(=O)N[C@@H](CCCCNC(=O)COCCOCCN(C)C(=O)COCCOCCN(C)C(=O)CC[C@@H](C(=O)O)N(C)C(=O)CCCCCCCCCCCCCCCCCc3nnn[nH]3)C(N)=O)CCOCC2)NC1=O [compound 3, MeCO-Pen(3)-N-T-7MeW-K(Ac)-Pen(3)-AEF-2Nal-THP-E-N-3Pya-Sar-K(PEG2NMePEG2NMegENMeC18Tetrazole)-CONH2] | < 50 nM | < 0.5 nM

More lines, main results first:

Row | IC50 [1] | SMILES | IC50 [2]
4 | ≥ 500 nM | CC(=O)NCCCC[C@@H]1NC(=O)[C@H](Cc2c[nH]c3c(C)cccc23)NC(=O)[C@H]([C@@H](C)O)NC(=O)[C@H](CCCCNC(=O)COCCOCCNC(=O)COCCOCCNC(=O)CC[C@H](NC(=O)CCCCCCCCCCCCCCCCC(=O)O)C(=O)O)NC(=O)[C@@H](NC(=O)[C@@H](CCCNC(=N)N)NC(C)=O)C(C)(C)SSC(C)(C)[C@@H](C(=O)N[C@@H](Cc2ccc(OCCN)cc2)C(=O)N[C@@H](Cc2ccc3ccccc3c2)C(=O)NC2(C(=O)N[C@@H](CCC(=O)O)C(=O)N[C@@H](CC(N)=O)C(=O)N[C@@H](Cc3cccnc3)C(=O)N(C)CC(=O)NCCOCCOCC[N+](C)(C)C)CCOCC2)NC1=O [compound 66, MeCO-r-Pen(3)-K(PEG2PEG2gEC18OH)-T-7MeW-K(Ac)-Pen(3)-AEF-2Nal-THP-E-N-3Pya-Sar-CONH(PEG3a)] (Ac-[dR][Pen]K([AEEA-AEEA-γGlu-C18 diacid])T[Trp(7-Me)]K(Ac)[Pen][AEF][2Nal][Thp]EN[3Pal][Sar]-{NH(CH2CH2O)2CH2CH2NMe3+}; disulfide 2-7) | 0.5 to 5 nM
5 | < 50 nM | CC(=O)N(C)CCCC[C@@H]1NC(=O)[C@H](Cc2c[nH]c3c(C)cccc23)NC(=O)[C@H]([C@@H](C)O)NC(=O)[C@H](CC(=O)N(C)C)NC(=O)[C@@H](CC(=O)[C@H](C)CCCCNC(=O)COCCOCCNC(=O)COCCOCCNC(=O)CC[C@H](NC(=O)CCCCCCCCCCCCCCCCC(=O)O)C(=O)O)C(C)(C)SSC(C)(C)[C@@H](C(=O)N[C@@H](Cc2ccc(OCCOCCOCC[N+](C)(C)C)cc2)C(=O)N[C@@H](Cc2ccc3ccccc3c2)C(=O)NC2(C(=O)N[C@@H](CCCCN(C)C(C)=O)C(=O)N[C@@H](CC(N)=O)C(=O)N[C@@H](Cc3cccnc3)C(=O)N(C)CC(=O)N(C)C)CCOCC2)NC1=O [compound 159, cPEG3aCO-k(PEG2PEG2gEC18OH)-Pen(3)-N(N(Me)2)-T-7MeW-K(NMeAc)-Pen(3)-APEG3F-2Nal-THP-K(NMeAc)-N-3Pya-Sar-CON(Me)2] (D(NMe2)T[Trp(7-Me)][Lys(Me)](Ac)[Pen]Y(CH2CH2OCH2CH2OCH2CH2NMe3+)[2Nal][Thp][Lys(Me)](Ac)N[3Pal][Sar]-NMe2; linker N-5 via X29) | < 0.5 nM
6 | < 50 nM | CC(=O)NCCCC[C@@H]1NC(=O)[C@H](Cc2c[nH]c3c(C)cccc23)NC(=O)[C@H]([C@@H](C)O)NC(=O)[C@H](CCCCNC(=O)CCOCCOCCOCCOCCOCCOCCOCOCCOCCOCCOCCOCCNC(=O)CC[C@H](NC(=O)CCCCCCCCCCCCCCCCC(=O)O)C(=O)O)NC(=O)[C@@H](NC(C)=O)C(C)(C)SSC(C)(C)[C@@H](C(=O)N[C@@H](Cc2ccc(OCCN)cc2)C(=O)N[C@@H](Cc2ccc3ccccc3c2)C(=O)NC2(C(=O)N[C@@H](CCC(=O)O)C(=O)N[C@@H](CC(N)=O)C(=O)N[C@@H](Cc3cccnc3)C(=O)N(C)CC(N)=O)CCOCC2)NC1=O [compound 97, MeCO-Pen(3)-K(PEG12gEC18OH)-T-7MeW-K(Ac)-Pen(3)-AEF-2Nal-THP-E-N-3Pya-Sar-CONH2] (Ac-[Pen]K(X18)T[Trp(7-Me)]K(Ac)[Pen][AEF][2Nal][Thp]EN[3Pal][Sar]-NH2; disulfide 1-6) | < 0.5 nM
7 | < 50 nM | CC(=O)NCCCC[C@@H]1NC(=O)[C@H](Cc2c[nH]c3c(C)cccc23)NC(=O)[C@H]([C@@H](C)O)NC(=O)[C@H](CC(N)=O)NC(=O)[C@@H](NC(C)=O)C(C)(C)SSC(C)(C)[C@@H](C(=O)N[C@@H](Cc2ccc(OCCN)cc2)C(=O)N[C@@H](Cc2ccc3ccccc3c2)C(=O)NC2(C(=O)N[C@@H](CCC(=O)O)C(=O)N[C@@H](CC(N)=O)C(=O)N[C@@H](Cc3cccnc3)C(=O)N(C)CC(=O)N[C@@H](CCCCNC(=O)CCOCCOCCOCCOCCOCCOCCOCCOCCOCCOCCOCCOCCNC(=O)CC[C@H](NC(=O)CCCCCCCCCCCCCCCCCCC(=O)O)C(=O)O)C(N)=O)CCOCC2)NC1=O [compound 103, MeCO-Pen(3)-N-T-7MeW-K(Ac)-Pen(3)-AEF-2Nal-THP-E-N-3Pya-Sar-K(PEG12gEC20OH)-CONH2] | < 0.5 nM
8 | < 50 nM | CC(=O)N(C)CCCC[C@@H]1NC(=O)[C@H](Cc2c[nH]c3c(C)cccc23)NC(=O)[C@H]([C@@H](C)O)NC(=O)[C@H](CC(=O)N(C)C)NC(=O)[C@@H](NC(=O)[C@@H](CCCCNC(=O)CCOCCOCCOCCOCCOCCOCCOCCOCCOCCOCCOCCOCCNC(=O)CC[C@H](NC(=O)CCCCCCCCCCCCCCCCC(=O)O)C(=O)O)CC(=O)CCOCCOCC[N+](C)(C)C)C(C)(C)SSC(C)(C)[C@@H](C(=O)N[C@@H](Cc2ccc(OCCCCC[N+](C)(C)C)cc2)C(=O)N[C@@H](Cc2ccc3ccccc3c2)C(=O)NC2(C(=O)N[C@@H](CCCCN(C)C(C)=O)C(=O)N[C@@H](CC(N)=O)C(=O)N[C@@H](Cc3cccnc3)C(=O)N(C)CC(=O)N(C)C)CCOCC2)NC1=O [compound 132, cPEG3aCO-k(PEG12gEC18OH)-Pen(3)-N(N(Me)2)-T-7MeW-K(NMeAc)-Pen(3)-TMAPF-2Nal-THP-K(NMeAc)-N-3Pya-Sar-CON(Me)2] ({C18 diacid-γGlu-PEG12}-[X15][Pen]D(NMe2)T[Trp(7-Me)][Lys(Me)](Ac)[Pen]Y(X1)[2Nal][Thp][Lys(Me)](Ac)N[3Pal][Sar]-NMe2; disulfide 2-7) | < 0.5 nM
